Measurements: US20240309060A1, “POLYPEPTIDE BAX/NPM INHIBITORS” (TRUSTEES OF BOSTON UNIVERSITY, priority 2023, published 2024)
Entries after “also recorded” stand apart in the source; their conditions may differ. Square brackets hold non-standard residues; d marks the D form. βAla = NCCC(=O)O

Key:
human NPM1 = human NPM1 (Homo sapiens, UniProt P06748); test: Surface plasmon resonance (SPR) binding of peptides to human NPM1; settings: human NPM1, FIG. 14
Text: FIG. 14 depicts a table of the association rate, dissociation rate and the calculated equilibrium dissociation constant for 10 representative therapeutic peptides as measured by Surface Plasmon Resonance (SPR). Mean rates are derived from at least three different peptide concentrations at levels below saturation with human NPM1. Cell survival data are normalized to the negative control (a GFP fragment of similar size to the therapeutic peptides) and represent the mean of at least 3 separate experiments.
FIG. 15 depicts an on-off rate map. A graph of the off-rate (x-axis) and on-rate (y-axis) of 10 representative peptides from different sets of modified peptides. Diagonal dash-lines represent the equilibrium dissociation constant (KD) estimates the NPM1 binding affinity for each peptide based on the distance to the lines.
The 3D helical wheel projection scan predicted that 5 of 6 peptide residues (except for L185) with intermediate effects on post-ischemic cell survival cluster in a single surface domain (FIGS. 6 and 7). These surface residues are likely regulating the binding affinity Kd) between the therapeutic peptide and NPM1, the human target protein. Since binding affinity (Kd) between the peptide drug and NPMB1 partly predicts its efficacy, a high throughput, quantitative surface plasmon resonance (SPR) assay was developed.
SPR was measured for 10 novel polypeptides with select single or double mutations. Both the measured peptide “on” and “off” rates for binding human NPM1 markedly differed (FIG. 15). […] For most modified peptides, greater protection against ischemic stress positively correlated with a low Kd. […] Overall, SPR data combined with cell survival data adequately informs the selection of therapeutic peptides based on the quantifiable effects of R group modifications on these parameters. The combination of SPR binding affinity and cell survival data in vitro effectively rank orders therapeutic peptides for in vivo testing in animals.

[1] = tested on: primary murine proximal tubule epithelial cells (PTEC); test: MTT cell survival assay of kidney cells after ischemic stress in vitro induced by metabolic inhibitors; assay type: cell-based; settings: for Effect of the residue (single alanine substitution) on cytoprotection / cell survival after ischemic stress: alanine scanning of NPMB1, PTEC, FIG. 2; for Degree of cytoprotection during ischemic stress: alanine scan and pro-helical mutations; for Protection of primary kidney proximal tubule cells from ischemic stress (relative kidney cell survival rate): 70 min ischemic stress, metabolic inhibitors, vs non-specific GFP fragment, normalized to baseline, FIG. 4; for Viability of primary murine kidney cells after ischemic stress: ischemic stress induced by metabolic inhibitors, FIGS. 5, 7
Method: FIG. 2 depicts an NPMB1 Alanine Scan. Relative kidney cell survival rate after 70 min ischemic stress in vitro induced by metabolic inhibitors in the presence of NPMB1 (control) vs. 19 different NPMBx polypeptides with single alanine substitutions (2 additional NPMB1 alanine residues were not substituted). Residue numbers (x axis) reflect Bax sequence that binds human NPM1; Survival data are normalized to NPMB1; post-ischemic kidney cell survival is shown in tertiles: (left-most group: 5-40% survival; middle-group: 55-70% and third group: 80-95%); n=3 separate experiments.
Relative kidney cell survival rate after 70 min ischemic stress in vitro induced by transient exposure to metabolic inhibitors in the presence of NPMB polypeptides (Agents 2, 5, 7, 14 that reflect alanine scan polypeptides A173, A187, A179, A176) vs. a non—specific polypeptide (GFP fragment). Survival data normalized to baseline (no stress); *P<0.01vs. baseline; t P<0.05 vs. stress; data represent 3 separate experiments; error bars represent mean+SD.
FIGS. 13A-13B depict the cytoprotective effects of select therapeutic peptides during ischemic stress in vitro. Primary murine proximal tubule epithelial cells (PTEC) were transiently exposed to metabolic inhibitors for 60 min and allowed to recover for 6 hr. to simulate ischemia in vivo; MTT assay estimated cell survival. “Control” (open bars); is a GFP fragment of similar size to the therapeutic peptides was used a negative control; NPMB1 (prototype) serves as a positive control. […] All peptides contained the nuclear localizing sequence (NLS) to enhance peptide delivery to the kidney, a beta linker and both carboxy-and amino terminal modifications to reduce susceptibility to protease digestion; data are mean+standard error; n=3 separate experiments. Figure discloses SEQ ID NOS 139, 134-135, 128, 127, and 138, respectively, in order of appearance.
Structure activity relationships of NPMB1 derivatives were determined through alanine scanning In these studies, 19 polypeptides were produced using methods shown in FIGS. 8-11 and their effect of kidney cell survival after ischemic stress was characterized using the MTT cell survival assay. Based on determination of relative kidney cell survival rate, polypeptides were grouped according to activity as shown in FIG. 2 (orange: 5-40% survival; blue 55-70% survival, or green 80-95% survival).

human NPM1, sequence (P06748 whole entry, the tested form may be a part): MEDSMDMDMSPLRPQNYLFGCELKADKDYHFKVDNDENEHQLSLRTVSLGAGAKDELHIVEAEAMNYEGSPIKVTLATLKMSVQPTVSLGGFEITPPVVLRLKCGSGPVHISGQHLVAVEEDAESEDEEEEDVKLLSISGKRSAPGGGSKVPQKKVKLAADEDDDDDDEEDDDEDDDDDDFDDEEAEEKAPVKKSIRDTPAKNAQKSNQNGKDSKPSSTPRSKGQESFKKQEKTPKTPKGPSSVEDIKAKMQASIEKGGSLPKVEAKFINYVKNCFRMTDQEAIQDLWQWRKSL

Substance | Effect of the residue (single alanine substitution) on cytoprotection / cell survival after ischemic stress [1] | other results
Ac-KKRRRKKRRRKKRRRK-Bala-TVTIFVAGVLTASLTIWKKMG-OH (Ac-KKRRRKKRRRKKRRRK[βAla]TVTIFVAGVLTASLTIWKKMG-OH; SMILES CC[C@H](C)[C@H](NC(=O)[C@@H](NC(=O)[C@H](CC(C)C)NC(=O)[C@H](CO)NC(=O)[C@H](C)NC(=O)[C@@H](NC(=O)[C@H](CC(C)C)NC(=O)[C@@H](NC(=O)CNC(=O)[C@H](C)NC(=O)[C@@H](NC(=O)[C@H](Cc1ccccc1)NC(=O)[C@@H](NC(=O)[C@@H](NC(=O)[C@@H](NC(=O)[C@@H](NC(=O)CCNC(=O)[C@H](CCCCN)NC(=O)[C@H](CCCNC(=N)N)NC(=O)[C@H](CCCNC(=N)N)NC(=O)[C@H](CCCNC(=N)N)NC(=O)[C@H](CCCCN)NC(=O)[C@H](CCCCN)NC(=O)[C@H](CCCNC(=N)N)NC(=O)[C@H](CCCNC(=N)N)NC(=O)[C@H](CCCNC(=N)N)NC(=O)[C@H](CCCCN)NC(=O)[C@H](CCCCN)NC(=O)[C@H](CCCNC(=N)N)NC(=O)[C@H](CCCNC(=N)N)NC(=O)[C@H](CCCNC(=N)N)NC(=O)[C@H](CCCCN)NC(=O)[C@H](CCCCN)NC(C)=O)[C@@H](C)O)C(C)C)[C@@H](C)O)[C@@H](C)CC)C(C)C)C(C)C)[C@@H](C)O)[C@@H](C)O)C(=O)N[C@@H](Cc1c[nH]c2ccccc12)C(=O)N[C@@H](CCCCN)C(=O)N[C@@H](CCCCN)C(=O)N[C@@H](CCSC)C(=O)NCC(=O)O) [NPMB1-I-010] | – | Kd / NPM1 binding affinity in words (human NPM1): relatively low Kd
Ac-PKKKRKV-Bala-AVTIFVAGVLTASLTIWKKMG-OMe [NPMB1-III-001] | moderate cytoprotective effects | –
Ac-PKKKRKV-Bala-QVTIAVAGVLTASLTIWKKMG-OMe [NPMB1-X-009] | – | Cytoprotective effects during ischemic stress in vitro ([1]; peptides 100 nM, metabolic inhibitors 60 min, recovery 6 hr, vs GFP negative control, FIG. 13): most robust protection
Ac-PKKKRKV-Bala-QVTIFVAGVLTASLTIWKKMG-OMe [NPMB1-V-004] | – | Degree of cytoprotection during ischemic stress [1]: highly effective
Ac-PKKKRKV-Bala-TATIFVAGVLTASLTIWKKMG-OMe [NPMB1-III-002] | minimal effect on cell survival | Protection of primary kidney proximal tubule cells from ischemic stress (relative kidney cell survival rate) [1]: protect; Degree of cytoprotection during ischemic stress [1]: substantial protection; Viability of primary murine kidney cells after ischemic stress ([1]; listed as Agent 2): substantially improve the viability; also recorded: protect against ischemic injury
Ac-PKKKRKV-Bala-TVAIFVAGVLTASLTIWKKMG-OMe [NPMB1-III-003] | critical for cytoprotection | –
Ac-PKKKRKV-Bala-TVTAFVAGVLTASLTIWKKMG-OMe [NPMB1-III-004] | moderate cytoprotective effects | –
Ac-PKKKRKV-Bala-TVTIAVAAVLTASLTIWKKMG-OMe [NPMB1-X-008] | – | Kd / NPM1 binding affinity in words (human NPM1): relatively low Kd values
Ac-PKKKRKV-Bala-TVTIAVAGVLTASLTIWKKMG-OMe [NPMB1-III-005] | minimal effect on cell survival | Protection of primary kidney proximal tubule cells from ischemic stress (relative kidney cell survival rate) [1]: protect; Degree of cytoprotection during ischemic stress [1]: substantial protection; Viability of primary murine kidney cells after ischemic stress ([1]; listed as Agent 5): substantially improve the viability; also recorded: protect against ischemic injury
Ac-PKKKRKV-Bala-TVTIFAAGVLTASLTIWKKMG-OMe [NPMB1-III-006] | critical for cytoprotection | –
Ac-PKKKRKV-Bala-TVTIFVAAVLTASLTIWKKMG-OMe [NPMB1-III-007] | minimal effect on cell survival | Protection of primary kidney proximal tubule cells from ischemic stress (relative kidney cell survival rate) [1]: protect; Degree of cytoprotection during ischemic stress [1]: substantial protection; Viability of primary murine kidney cells after ischemic stress ([1]; listed as Agent 7): substantially improve the viability; also recorded: protect against ischemic injury
Ac-PKKKRKV-Bala-TVTIFVAGALTASLTIWKKMG-OMe [NPMB1-III-008] | moderate cytoprotective effects | –
Ac-PKKKRKV-Bala-TVTIFVAGVATASLTIWKKMG-OMe [NPMB1-III-009] | critical for cytoprotection | –
Ac-PKKKRKV-Bala-TVTIFVAGVLAASLTIWKKMG-OMe [NPMB1-III-010] | critical for cytoprotection | –
Ac-PKKKRKV-Bala-TVTIFVAGVLTAALTIWKKMG-OMe [NPMB1-III-011] | critical for cytoprotection | –
Ac-PKKKRKV-Bala-TVTIFVAGVLTASATIWKKMG-OMe [NPMB1-III-012] | moderate cytoprotective effects | Viability of primary murine kidney cells after ischemic stress ([1]; listed as Agent 12): substantially improve the viability; also recorded: protect against ischemic injury
Ac-PKKKRKV-Bala-TVTIFVAGVLTASLAIWKKMG-OMe [NPMB1-III-013] | moderate cytoprotective effects | –
Ac-PKKKRKV-Bala-TVTIFVAGVLTASLQIWKKMG-OMe [NPMB1-V-003] | – | Kd / NPM1 binding affinity in words (human NPM1): low Kd values (except NPMB1-V-003
Ac-PKKKRKV-Bala-TVTIFVAGVLTASLTAWKKMG-OMe [NPMB1-III-014] | minimal effect on cell survival | Protection of primary kidney proximal tubule cells from ischemic stress (relative kidney cell survival rate) [1]: protect; Degree of cytoprotection during ischemic stress [1]: substantial protection
Ac-PKKKRKV-Bala-TVTIFVAGVLTASLTIAKKMG-OMe [NPMB1-III-015] | critical for cytoprotection | –
Ac-PKKKRKV-Bala-TVTIFVAGVLTASLTIWAKMG-OMe [NPMB1-III-016] | critical for cytoprotection | –
Ac-PKKKRKV-Bala-TVTIFVAGVLTASLTIWKAMG-OMe [NPMB1-III-017] | critical for cytoprotection | –
Ac-PKKKRKV-Bala-TVTIFVAGVLTASLTIWKKAG-OMe [NPMB1-III-018] | moderate cytoprotective effects | –
Ac-PKKKRKV-Bala-TVTIFVAGVLTASLTIWKKMA-OMe [NPMB1-III-019] | critical for cytoprotection | –
Ac-PKKKRKV-Bala-TVTLFVAGVLTASLTAWKKMG-OMe [NPMB1-X-002] | – | Kd / NPM1 binding affinity in words (human NPM1): relatively low Kd values
